Reference: paper PMC7450057, “Enhancing intracellular accumulation and target engagement of PROTACs with reversible covalent chemistry” (Nature Communications, 2020)
pIC50, pKd: −log10 of the molar value. “And” between values parts separate entries of the source, which are not always exact repeats. Equal entries are not always repeated.

How the values were obtained:
[1] = molecular target: truncated Cereblon protein (Homo sapiens, UniProt Q96SW2); experiment: CRBN binding assay (fluorescence quenching); conditions: for Fluorescence Intensity: Supplementary Figure 11, replicates; for pKd: truncated Cereblon protein, fluorescence quenching, triplicates, read-out: Kd
Protocol: The Kd values of compounds to CRBN were measured based on fluorescence quenching after compounds binding to CRBN. […] All the compounds were dissolved in DMSO (10 mM) as stock solutions. The final drug concentration is 100 nM. […] Fluorescence intensity values for control wells (assay buffer only) were subtracted from each data point prior to analysis. The Kd was calculated using GraphPad Prism with the following equation curve fit. I=I0−If×Kd/P0+Kd+If

[2] = system: Mino cells; experiment: AlamarBlue cell viability assay, Mino; format: cell-based; conditions: for Mino Cell Viability%: Figure 2f, 5 replicates
Protocol: The IC50 was calculated using GraphPad Prism software with a four-parameter dose-response curve fit.

[3] = system: Jeko-1; experiment: IC50 in MCL cell lines (Supplementary Table 2), Jeko-1; conditions: for pIC50: Jeko-1, triplicates; for Cell Viability (%): Jeko-1 cells, replicate wells
[4] = system: Mino; experiment: IC50 in MCL cell lines (Supplementary Table 2), Mino; conditions: for Cell Viability (%): Mino cells, replicate wells; for pIC50: Mino, triplicates
[5] = system: Maver-1; experiment: IC50 in MCL cell lines (Supplementary Table 2), Maver-1; conditions: for pIC50: Maver-1, triplicates; for Cell Viability (%): Maver-1 cells, replicate wells
[6] = molecular target: T1, C481S mutant BTK (Homo sapiens, UniProt Q06187, C481S); experiment: BTK degradation in XLA cells overexpressing C481S mutant BTK (western blot); format: cell-based; conditions: 24 h
T1 construct: expressed in transfected cells; host or cells: XLA cells (gift from Dr. Woyach)
Protocol: XLA cells overexpressing wild-type BTK or mutant C481S BTK were plated at the same cell number and density as the above experiments and were treated with RC-1, IRC-1, or RNC-1 at the dose of 1.6, 8.0, 40, 200, and 1000 nM for 24 h. After completion of treatment, all the cells were collected and processed for western blot analysis.
The collected cells and spleen tissues were lysed in RIPA lysis buffer (50 mM Tris-HCl, pH 7.4, 150 mM NaCl, 1% NP-40, 0.5% sodium deoxycholate, 0.1% SDS) supplemented with Halt™ Protease and Phosphatase Inhibitor Cocktail (Thermo Fisher Scientific, Cat. No. PI78440) immediately before use. Lysates were centrifuged at 15,000 × g for 10 min at 4 °C and the supernatant was quantified for total protein concentration using the Pierce BCA Protein Assay (Thermo Fisher Scientific, Cat. No. 23225). Thirty micrograms of protein were loaded onto sodium dodecyl sulfate−polyacrylamide gel for electrophoresis (Bio-Rad) and transferred onto PVDF membranes (Millipore, Cat. No. IPVH00010). […] Imaging was performed using the ECL Prime chemiluminescent western blot detection reagents (GE Healthcare, Cat. No. RPN2232) by visualization of the blots to X-Ray film or with an Imager (Kindle Biosciences, Cat. No. D1001). All western blots were subsequently processed and quantified with Imager software. Protein level was normalized to β-actin or GAPDH loading controls.

truncated Cereblon protein, sequence (Q96SW2 318-426): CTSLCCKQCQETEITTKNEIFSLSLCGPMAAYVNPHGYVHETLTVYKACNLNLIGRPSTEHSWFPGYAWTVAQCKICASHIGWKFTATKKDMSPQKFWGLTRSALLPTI
T1 sequence (Q06187 whole entry C481S): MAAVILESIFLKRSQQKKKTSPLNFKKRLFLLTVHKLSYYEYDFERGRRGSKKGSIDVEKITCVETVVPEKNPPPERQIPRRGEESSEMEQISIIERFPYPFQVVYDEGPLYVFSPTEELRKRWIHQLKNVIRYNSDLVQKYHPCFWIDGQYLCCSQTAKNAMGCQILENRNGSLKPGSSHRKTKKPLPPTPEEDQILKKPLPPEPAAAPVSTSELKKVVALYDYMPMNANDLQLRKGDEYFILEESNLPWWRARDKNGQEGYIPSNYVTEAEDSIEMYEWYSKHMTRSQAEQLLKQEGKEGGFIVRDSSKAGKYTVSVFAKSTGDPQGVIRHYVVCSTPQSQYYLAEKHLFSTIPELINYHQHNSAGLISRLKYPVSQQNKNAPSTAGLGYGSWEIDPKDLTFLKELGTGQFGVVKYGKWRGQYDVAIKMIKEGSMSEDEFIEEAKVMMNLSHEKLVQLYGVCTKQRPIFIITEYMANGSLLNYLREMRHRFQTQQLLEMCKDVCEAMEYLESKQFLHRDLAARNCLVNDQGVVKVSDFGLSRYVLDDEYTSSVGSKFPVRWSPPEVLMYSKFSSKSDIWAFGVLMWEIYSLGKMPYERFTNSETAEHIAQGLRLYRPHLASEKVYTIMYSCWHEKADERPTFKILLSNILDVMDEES

| Compound | Fluorescence Intensity ([1]; CRBN 0 μM) | Fluorescence Intensity ([1]; CRBN 0.734375 μM) | Fluorescence Intensity ([1]; CRBN 1.46875 μM) | Fluorescence Intensity ([1]; CRBN 2.9375 μM) | Fluorescence Intensity ([1]; CRBN 5.875 μM) | Fluorescence Intensity ([1]; CRBN 11.75 μM) | Fluorescence Intensity ([1]; CRBN 23.5 μM) | pKd [1] | pIC50 [3] | Cell Viability (%) ([3]; 1.25E-06 M) | Cell Viability (%) ([3]; 1.56E-07 M) | Cell Viability (%) ([3]; 2.50E-06 M) | Cell Viability (%) ([3]; 3.13E-07 M) | Cell Viability (%) ([3]; 5.00E-06 M) | Cell Viability (%) ([3]; 6.25E-07 M) | Cell Viability (%) ([3]; 7.81E-08 M) | Cell Viability (%) ([4]; 1.25E-06 M) | Cell Viability (%) ([4]; 1.56E-07 M) | Cell Viability (%) ([4]; 2.50E-06 M) | Cell Viability (%) ([4]; 3.13E-07 M) | other results |
| --- | --- | --- | --- | --- | --- | --- | --- | --- | --- | --- | --- | --- | --- | --- | --- | --- | --- | --- | --- | --- | --- |
| CN(CCCNC(=O)CNc1cccc2c1C(=O)N(C1CCC(=O)NC1=O)C2=O)CCCC(=O)N1CCCC(n2nc(-c3ccc(Oc4ccccc4)cc3)c3c(N)ncnc32)C1 (stereo not shown) [RNC-1] | 2486.8 and 2886.8 and 2579.8 | 2242.8 and 2235.8 and 2132.8 | 2244.8 and 1962.8 and 1899.8 | 1778.8 and 1742.8 and 1730.8 | 1389.8 and 1303.8 and 1288.8 | 1034.8 and 1140.8 and 1274.8 | 1293.8 and 1294.8 and 1588.8 | 5.74 | – | – | – | – | – | – | – | – | – | – | – | – | Mino Cell Viability% ([2]; 1.00E-06 M): 58.0853% and 51.9026% and 45.6712% and 52.4594%; Mino Cell Viability% ([2]; 1.60E-09 M): 101.95% and 90.6294% and 68.165% and 98.7947% and 93.12%; Mino Cell Viability% ([2]; 2.00E-07 M): 37.8282% and 87.963% and 68.8682% and 84.564% and 91.6647%; Mino Cell Viability% ([2]; 3.20E-10 M): 102.731% and 88.3341% and 102.301% and 86.4979% and 82.7278%; Mino Cell Viability% ([2]; 4.00E-08 M): 90.0141% and 69.2003% and 110.3% and 97.7887% and 98.2185%; Mino Cell Viability% ([2]; 5.00E-06 M): 16.067% and 36.4022% and 19.085% and 31.8214% and 33.179%; Mino Cell Viability% ([2]; 8.00E-09 M): 96.0404% and 89.3401% and 104.098% and 90.522% and 101.012%; pIC50 ([2]; Homo sapiens, Mino cells, 72 h, Alamar Blue): 6.00 |
| CN1C(=O)CCC(N2C(=O)c3cccc(NCC(=O)NCCCN(C)C(C)(C)C=C(C#N)C(=O)N4CCCC(n5nc(-c6ccc(Oc7ccccc7)cc6)c6c(N)ncnc65)C4)c3C2=O)C1=O (stereo not shown) [RC-1-Me] | – | – | – | – | – | – | – | – | 6.22 | 36.268% and 32.7063% and 31.5519% | 68.2022% and 62.2702% and 73.2784% | 5.54% and 14.7844% and 6.721% | 71.0782% and 71.3298% and 71.3347% | 4.5335% and 3.7442% and 3.927% | 49.1754% and 57.0313% and 33.3624% | 77.062% and 93.1685% and 69.7463% | 62.8357% and 58.5114% and 61.2528% | 87.7372% and 87.5805% and 85.7829% | 55.4376% and 54.2347% and 53.6197% | 79.9575% and 76.1954% and 74.7404% | Cell Viability (%) ([4]; 5.00E-06 M): 43.6522% and 45.138% and 46.9951%; Cell Viability (%) ([4]; 6.25E-07 M): 66.0951% and 69.0683% and 66.9419%; Cell Viability (%) ([4]; 7.81E-08 M): 88.6147% and 85.2411% and 92.7295%; pIC50 [4]: 5.48; pIC50 [5]: 5.38; Cell Viability (%) ([5]; 1.25E-06 M): 75.2061% and 69.0199% and 79.2231%; Cell Viability (%) ([5]; 1.56E-07 M): 95.5665% and 93.8239% and 93.1905%; Cell Viability (%) ([5]; 2.50E-06 M): 67.4512% and 61.3175% and 56.7459%; Cell Viability (%) ([5]; 3.13E-07 M): 94.477% and 92.288% and 91.2083%; Cell Viability (%) ([5]; 5.00E-06 M): 42.5652% and 49.5981% and 48.479%; Cell Viability (%) ([5]; 6.25E-07 M): 91.2247% and 87.9954% and 86.7647%; Cell Viability (%) ([5]; 7.81E-08 M): 97.0795% and 100.847% and 94.9725% |
| CN(CC=CC(=O)N1CCCC(n2nc(-c3ccc(Oc4ccccc4)cc3)c3c(N)ncnc32)C1)CCCNC(=O)CNc1cccc2c1C(=O)N(C1CCC(=O)NC1=O)C2=O (stereo not shown) [IRC-1] | 2824.6 and 2800.6 and 2664.6 | 1780.6 and 1887.6 and 2192.6 | 1780.6 and 1687.6 and 2021.6 | 1637.6 and 1410.6 and 1592.6 | 1188.6 and 1223.6 and 1189.6 | 912.6 and 875.6 and 944.6 | 936.6 and 917.6 and 925.6 | 5.82 | – | – | – | – | – | – | – | – | – | – | – | – | BTK degradation (in words) [6]: much more effective degradation of the BTK C481S mutant than its wild-type |
| CC(C)(C)C=C(C#N)C(=O)N1CCCC(n2nc(-c3ccc(Oc4ccccc4)cc3)c3c(N)ncnc32)C1 (stereo not shown) [RC-Ctrl] | – | – | – | – | – | – | – | – | 6.22 | 31.3102% and 33.1774% and 45.3843% | 69.2456% and 61.0172% and 73.2882% | 11.5927% and 9.314% and 11.5138% | 58.8318% and 42.4713% and 68.6832% | 5.458% and 5.865% and 4.45% | 52.1031% and 47.1602% and 45.3596% | 53.9062% and 67.1539% and 84.5751% | 64.9212% and 67.7956% and 65.2142% | 72.1676% and 75.0045% and 70.0395% | 62.0161% and 61.5033% and 61.0381% | 62.4012% and 64.8258% and 70.1741% | Cell Viability (%) ([4]; 5.00E-06 M): 55.6234% and 57.3306% and 56.4139%; Cell Viability (%) ([4]; 6.25E-07 M): 64.669% and 69.1433% and 66.0679%; Cell Viability (%) ([4]; 7.81E-08 M): 69.6595% and 74.2003% and 68.2948%; pIC50 [4]: < 5.30; pIC50 [5]: < 5.30; Cell Viability (%) ([5]; 1.25E-06 M): 92.5899% and 86.5612% and 87.595%; Cell Viability (%) ([5]; 1.56E-07 M): 103.384% and 106.186% and 101.772%; Cell Viability (%) ([5]; 2.50E-06 M): 81.7599% and 80.9854% and 82.1702%; Cell Viability (%) ([5]; 3.13E-07 M): 99.5605% and 94.4048% and 98.8352%; Cell Viability (%) ([5]; 5.00E-06 M): 60.4937% and 62.4464% and 56.8706%; Cell Viability (%) ([5]; 6.25E-07 M): 97.5323% and 94.4409% and 89.8332%; Cell Viability (%) ([5]; 7.81E-08 M): 103.555% and 102.055% and 101.769% |
